In US8044100B2, “Methods and compositions for treating amyloid-related diseases” (Bellus Health Inc., priority 2004, dated 2011):

What was measured:
NAC peptide = target: T1, NAC peptide (Homo sapiens, UniProt P37840); experiment: Binding to NAC peptide by electrospray mass spectrometry; settings: 5:1 ratio compound:NAC (100 μM:20 μM or 200 μM:40 μM), pH 7.4; bound complex peak area / unbound NAC peak area
T1 construct: NAC is a 35 amino acid long peptide with highly hydrophobic stretches
Protocol: The ability of the compounds of the present invention to bind to NAC peptide in aqueous solution was evaluated. The binding ability correlates to the intensities of the peptide-compound complex peaks observed by the Electrospray Mass Spectrum. Millipore distilled deionized water was used to prepare all aqueous solutions. For pH determination a Beckman Φ36 pH meter fitted with a Corning Semi-Micro Combination pH Electrode was employed.
The optimal cone voltage was determined to be 20V.
Mass spectrometry—Mass spectrometric analysis was performed using a Waters ZQ 4000 mass spectrometer equipped with a Waters 2795 sample manager. MassLynx 4.0 (earlier by MassLynx 3.5) was used for data processing and analysis. Test compounds were mixed with disaggregated peptides in aqueous media (6.6% EtOH) at a 5:1 ratio (20 μM NAC:100 μM of test compound or 40 μM NAC:200 μM of test compound). The pH of the mixture was adjusted to 7.4 (+0.2) using 0.1% NaOH (3-5 μL). Periodically, NAC peptide solution at 20 μM or 40 μM was also prepared in the same fashion and run as control. The spectra were obtained by introducing the solutions to the electrospray source by direct infusion using a syringe pump at a flow rate of 25 μl/min, and scanning from 100 to 2100 Da in the positive mode. The scan time was 0.9 sec per scan with an inter-scan delay of 0.1 sec and the run time was 5 min for each sample. All the mass spectra were sum of 300 scans. The desolvation and source temperature was 70° C. and the cone and capillary voltage were maintained at 20 V and 3.2 kV respectively.
The total area under the peaks for the bound NAC-compound complex divided by total area under the peaks for unbound NAC was determined for each compound tested.

[1] = system: Aβ peptides (Aβ40, Aβ42) in the plasma and brain of TgCRND8 mice; experiment: Short term treatment (14 or 28 days) in TgCRND8 mice: Aβ levels in plasma and brain by ELISA; assay type: in vivo, mouse;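 on Aβ40 Change Insoluble: symbols grade percent change in Aβ versus untreated control with plus for increase and minus for decrease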;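 on Aβ40 Change Soluble: symbols grade percent change in Aβ versus untreated control with plus for increase and minus for decrease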;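 on Aβ42 Change Insoluble: symbols grade percent change in Aβ versus untreated control with plus for increase and minus for decrease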
Protocol: The short term therapeutic effect of 19 compounds of the invention was studied. These compounds were administered over a 14 or 28 day period at the end of which the levels of Aβ peptides in the plasma and brain of TgCRND8 animals were determined.
Male and female transgenic mice from the 3rd and 4th B6C3F1 generations were used in this example and given daily subcutaneous or oral administrations of one of a series of compounds for 14 or 28 days. The following abbreviations are used to designate these animals from the 3rd and 4th generation backcross in the present protocol: TgCRND8-2.B6C3F1(N3); TgCRND8-2.B6C3F1 (N4).
Baseline animals (Group 1) consisted of naive TgCRND8-2. B6C3F1(N3) at 11±1 weeks of age. These mice were used to determine the Aβ levels in the plasma and brain of naive transgenic animals at the initiation of treatment.
Starting at 11 weeks of age (±1 week) animals received daily administration of their respective treatment for a period of 14 or 28 days (groups 2-21), at a dose of 250 mg/kg at 10 ml/kg or of vehicle only (water; group 2) or 1% methyl cellulose only (group 21). The route of administration was subcutaneous for water-soluble compounds and oral for compounds solubilized in methylcellulose 1%. (MC 1%). At the end of the treatment periods, plasma and perfused brains were collected for quantification of Aβ levels.
At 11±1 weeks of age for the Baseline group, and at the end of the treatment period (14 or 28 days) for Groups 2 to 21, at 24 hours after the last compound administration animals were sacrificed and samples collected. An approximate blood volume of 500 μl was collected from the orbital sinus and kept on ice until centrifugation at 4° C. at a minimum speed of 3,000 rpm for 10 minutes. Plasma samples were immediately frozen and stored at −80° C. pending analysis. The brains were removed, frozen, and stored at −80° C. awaiting analysis.
Brains were weighted frozen and homogenized with 4 volumes of ice cold 50 mM Tris-Cl pH 8.0 buffer with protease inhibitor cocktail (4 mL of buffer for 1 g of wet brain). Samples were spun at 15000 g for 20 minutes and the supernatants were transferred to fresh tubes. One hundred fifty (150) μl from each supernatant were mixed with 250 μl of 8M guanidine-HCL/50 mM Tris-HCL pH 8.0 (ratio of 0.6 vol supernatant:1 vol 8M guanidium/Tris-HCL 50 mM pH8.0) and 400 μL 5 M guanidium/Tris-HCL 50 mM pH8.0 were added. The tubes were vortexed for 30 seconds and frozen at −80° C. In parallel, pellets were treated with 7 volumes of 5 M guanidine-HCL/50 mM Tris-HCL pH 8.0 (7 mL of guanidine for 1 g of wet brain), vortexed for 30 seconds and frozen at −80° C. Samples were thawed at room temperature, sonicated at 80° C. for 15 minutes and frozen again. This cycle was repeated 3 times to ensure homogeneity and samples were returned to −80° C. pending analysis.
Aβ levels were evaluated in plasma and brain samples by ELISA using Human Aβ40 and Aβ42 Fluorometric ELISA kits from Biosource (Cat. No. 89-344 and 89-348) according to manufacturer's recommended procedures. In short, samples were thawed at room temperature, sonicated for 5 minutes at 80° C. (sonication for brain homogenates; no sonication for plasma samples) and kept on ice. Aβ peptides were captured using 100 μl of the diluted samples to the plate and incubated without shaking at 4° C. overnight. The samples were aspirated and the wells were rinsed 4 times with wash buffer obtained from the Biosource ELISA kit. The anti-Aβ40 or anti-Aβ42 rabbit polyclonal antiserum (specific for the Aβ40 or Aβ42 peptide) was added (100 μl) and the plate was incubated at room temperature for 2 hours with shaking. The wells were aspirated and washed 4 times before adding 100 μl of the alkaline phosphatase labeled anti-rabbit antibody and incubating at room temperature for 2 hours with shaking. The plates were then rinsed 5 times and the fluorescent substrate (100 μl) was added to the plate. […]

[2] = system: Aβ peptides (Aβ40, Aβ42) in the plasma and brain of TgCRND8 mice; experiment: Long term treatment (8 or 16 weeks) in TgCRND8 mice: Aβ levels in plasma and brain; assay type: in vivo, mouse; settings: BX subcutaneous, BW and BZ oral
Protocol: The long-term therapeutic effects of compounds of the present invention on cerebral amyloid deposition and β-amyloid (Aβ) levels in the plasma and in the brains of transgenic mice, TgCRND8, expressing the human amyloid precursor protein (hAPP) was studied. These compounds were administered over an 8 or 16 week period at the end of which the levels of Aβ peptides in the plasma and brain of TgCRND8 animals were determined. The goal of this study was to evaluate the efficacy of the compounds at modulating the progression of the amyloidogenic process in the brain and in the plasma of a transgenic mouse model of Alzheimer's disease (AD)
The mice used in the study consisted of animals bearing one copy of the hAPP gene (+/−) from the 2nd and 3rd generation progenies (N2 and N3) derived from backcrosses from TgCRND8.FVB(N2)AJ(N3) with B6AF1/J hybrid animals. • N1=TgCRND8.FVB(N2)AJ(N3)×B6AF1/J • N2=TgCRND8.FVB(N2)AJ(N3).B6AF1/J(N1)×B6AF1/J • N3=TgCRND8.FVB(N2)AJ(N3).B6AF1/J(N2)×B6AF1/J
The following abbreviations are used to designate these animals in the present study: TgCRND8.B6AF1/J(N2); TgCRND8.B6AF1/J(N3). Male and female transgenic mice were given daily subcutaneous (compound BX) or oral (compounds BW and BZ) administrations of the appropriate compounds for 8 or 16 weeks.
Baseline animals consisted of 9±1 week old naive TgCRND8.B6AF1/J animals from the 2nd and 3rd generations. These mice were used to determine the extent of cerebral amyloid deposits and Aβ levels in the plasma and brain of naive transgenic animals at the initiation of treatment.
Starting at 9 weeks of age (+1 week) animals received daily administration of their respective treatment for a period of 8 or 16 weeks, at a dose of 30 or 100 mg/kg at 10 ml/kg. The route of administration was subcutaneous for water-soluble compounds (Compound BX) and oral for compounds solubilized in methylcellulose 1% (MC 1%) (Compounds BW and BZ). At the end of the treatment periods, plasma and perfused brains were collected for quantification of Aβ levels.
Animal health was monitored, samples were collected and Aβ levels were measured as described above in the short term treatment study. Compounds were scored based on their ability to modulate levels of Aβ peptides in the plasma and the cerebral soluble/insoluble levels in the brain. Levels of Aβ observed in the plasma and brain of treated animals were compared to that of vehicle-treated (water) or methylcellulose-treated control groups and ranked according to the strength of the pharmacological effect. Increases in the levels of Aβ peptides are indicated using “+” symbols, while decreases in the levels of Aβ peptides are indicated using “−” symbols. The strongest effects are recorded as “+++” or “−−−” while the weakest are shown as “+” or “−”.
Specifically, increases in the levels of Aβ (relative to vehicle treated control) of 5 to 14% are scored as “+”; increases of 15 to 29% are scored as “++”; and increases of 30% or higher are scored as “+++”. Decreases in the levels of Aβ of 5 to 14% are scored as “−”; decreases of 15 to 29% are scored as “−−”; and decreases of 30% or more are scored as “−−−”. Additionally, changes of 4% or less in either direction are scored as “0”.

[3] = brain homogenate, Day 14, methylcellulose group, daily oral
[4] = brain homogenate, Day 28, methylcellulose group, daily oral
[5] = plasma, Day 28, methylcellulose group, daily oral

Compound: O=S(=O)([O-])OCCCOS(=O)(=O)[O-].[Na+].[Na+] [NaO3SOCH2CH2CH2OSO3Na]
- Binding Strength (NAC peptide): − (None; when the total binding is between 30% and 0%)

Compound: O=S(=O)(O)CC(O)CNC1CCCCC1 (centres unmarked) [drawing 751]
- Binding Strength (NAC peptide): +++ (Strong; when the total binding is 120% and higher)

Compound: O=S(=O)([O-])CCCCS(=O)(=O)[O-].[Na+].[Na+] [NaO3SCH2(CH2)2CH2SO3Na]
- Binding Strength (NAC peptide): − (None; when the total binding is between 30% and 0%)

Compound: O=S(=O)(O)CCCNC1C2CC3CC(C2)CC1C3 (centres unmarked) [drawing 749]
- Binding Strength (NAC peptide): ++ (Moderate; when the total binding is between 120% and 70%)

Compound: NCCS(=O)(=O)O [H2NCH2CH2SO3H]
- Binding Strength (NAC peptide): + (Weak; when the total binding is between 70% and 30%)

Compound: O=S(=O)(O)CCCNC1C2CC3CC(C2)CC1C3 (centres unmarked) [BZ]
- Aβ40 Change Insoluble [1, 3]: −−− (decreases of 39% or more)
- Aβ42 Change Insoluble [1, 3]: −− (decreases of 20 to 38%)
- Aβ40 Change Insoluble [1, 4]: −− (decreases of 20 to 38%)
- Aβ40 Change Soluble [1, 4]: −− (decreases of 20 to 38%)
- Aβ42 Change Insoluble [1, 4]: −− (decreases of 20 to 38%)
- Aβ40 Change ([1]; plasma, Day 14, methylcellulose group, 250 mg/kg daily oral): + (increases in the levels of Aβ (relative to untreated control) of 20 to 39%)
- Aβ40 Change [1, 5]: ++ (increases of 40 to 69%)
- Aβ42 Change [1, 5]: ++ (increases of 40 to 69%)
- Brain Abeta40 insoluble ([2]; 30 mg/kg daily, 8 wks): −− (decreases of 15 to 29%)
- Brain Abeta40 soluble ([2]; 30 mg/kg daily, 8 wks): 0 (changes of 4% or less in either direction)
- Brain Abeta42 insoluble ([2]; 30 mg/kg daily, 8 wks): −−− (decreases of 30% or more)
- Brain Abeta42 soluble ([2]; 30 mg/kg daily, 8 wks): 0 (changes of 4% or less in either direction)
- Plasma Abeta40 ([2]; 30 mg/kg daily, 8 wks): 0 (changes of 4% or less in either direction)
- Plasma Abeta42 ([2]; 30 mg/kg daily, 8 wks): 0 (changes of 4% or less in either direction)
- Brain Abeta40 insoluble ([2]; 30 mg/kg daily, 16 wks): + (increases in the levels of Aβ (relative to vehicle treated control) of 5 to 14%)
- Brain Abeta40 soluble ([2]; 30 mg/kg daily, 16 wks): 0 (changes of 4% or less in either direction)
- Brain Abeta42 insoluble ([2]; 30 mg/kg daily, 16 wks): 0 (changes of 4% or less in either direction)
- Brain Abeta42 soluble ([2]; 30 mg/kg daily, 16 wks): + (increases in the levels of Aβ (relative to vehicle treated control) of 5 to 14%)
- Plasma Abeta40 ([2]; 30 mg/kg daily, 16 wks): 0 (changes of 4% or less in either direction)
- Plasma Abeta42 ([2]; 30 mg/kg daily, 16 wks): + (increases in the levels of Aβ (relative to vehicle treated control) of 5 to 14%)
- Brain Abeta40 insoluble ([2]; 100 mg/kg daily, 8 wks): 0 (changes of 4% or less in either direction)
- Brain Abeta40 soluble ([2]; 100 mg/kg daily, 8 wks): ++ (increases of 15 to 29%)
- Brain Abeta42 insoluble ([2]; 100 mg/kg daily, 8 wks): − (Decreases in the levels of Aβ of 5 to 14%)
- Brain Abeta42 soluble ([2]; 100 mg/kg daily, 8 wks): 0 (changes of 4% or less in either direction)
- Plasma Abeta40 ([2]; 100 mg/kg daily, 8 wks): ++ (increases of 15 to 29%)
- Plasma Abeta42 ([2]; 100 mg/kg daily, 8 wks): +++ (increases of 30% or higher)
- Brain Abeta40 insoluble ([2]; 100 mg/kg daily, 16 wks): 0 (changes of 4% or less in either direction)
- Brain Abeta40 soluble ([2]; 100 mg/kg daily, 16 wks): −− (decreases of 15 to 29%)
- Brain Abeta42 insoluble ([2]; 100 mg/kg daily, 16 wks): + (increases in the levels of Aβ (relative to vehicle treated control) of 5 to 14%)
- Brain Abeta42 soluble ([2]; 100 mg/kg daily, 16 wks): − (Decreases in the levels of Aβ of 5 to 14%)
- Plasma Abeta40 ([2]; 100 mg/kg daily, 16 wks): ++ (increases of 15 to 29%)
- Plasma Abeta42 ([2]; 100 mg/kg daily, 16 wks): ++ (increases of 15 to 29%)

Compound: CC(C)(C)NCCCS(=O)(=O)O [drawing 748]
- Binding Strength (NAC peptide): ++ (Moderate; when the total binding is between 120% and 70%)

Compound: NCCCCS(=O)(=O)O
- Binding Strength (NAC peptide): + (Weak; when the total binding is between 70% and 30%)

Compound: NCCCOS(=O)(=O)[O-].[Na+] [H2NCH2CH2CH2OSO3Na]
- Binding Strength (NAC peptide): ++ (Moderate; when the total binding is between 120% and 70%)

Compound: NCCOS(=O)(=O)O [NH2CH2CH2OSO3H]
- Binding Strength (NAC peptide): − (None; when the total binding is between 30% and 0%)
